The values below come from US20230242641A1, “SLAMF7 CARS” (JULIUS-MAXIMILIANS-UNIVERSITÄT WÜRZBURG, priority 2020, published 2023).

Like-named read-outs stand apart in the source and are kept apart here.

The test system of one series is MM.1S cells. The following applies: cited from earlier work.
A further series has as its system SLAMF7. Particulars: cited from earlier work.
The next series deals with multiple myeloma. Particulars: cited from earlier work.
Series [1] relates to CD34+ hematopoietic stem cells. The following applies: cited from earlier work.
The subject of a further series is CAR-T cell-induced CRS. Particulars: 45 pediatric and adult patients; 31 patients; 95% CI: 53%-82%; cited from earlier work.
Series [2] has as its target T1, mouse SLAMF7 molecule linked to a Twin-Strep Tag (mice, UniProt Q8BHK6 23-224, limits assumed).
T1 construct: also called SLAMF7 of mice; not shown: Twin-Strep Tag
Briefly: flow cytometry: LV-RP cells incubated with Twin-Strep tagged SLAMF7 of different species, stained with anti-Strep Tag antibody (FIG. 37). The source says:
SLAMF7 molecules linked to a Twin-Strep Tag were stained by an anti-Strep Tag antibody.
A general note: In flow cytometry, cells or beads pass a laser one at a time.

For the molecule `CC(C)C[C@H](NC(=O)[C@H](Cc1ccccc1)NC(=O)c1cnccn1)B(O)O` [Bortezomib], the “eradication of MM.1S” value in the series with MM.1S cells (after 72 hours of treatment) is given as “less than 30%”.

As for `Nc1cccc2c1CN(C1CCC(=O)NC1=O)C2=O` (stereo not drawn) [Lenalidomide], in the series on MM.1S cells (after 72 hours of treatment), the “eradication of MM.1S” value is “about 40%”.

On to `N[C@@H](Cc1ccc(N(CCCl)CCCl)cc1)C(=O)O` [Melphalan], for which the “eradication of MM.1S” value with MM.1S cells (after 48 hours of treatment) is recorded as “less than 40%”.

For the molecule “Elotuzumab: SLAMF7-specific monoclonal antibody huLuc63”, the species cross-reactivity entry in the series on SLAMF7 is “lack of species cross-reactivity”. Also, the “eradication of MM.1S” value with MM.1S cells (after 72 hours of treatment) is listed as “less than 70%”. Also, in the series with multiple myeloma (after three years), the “interim overall survival rate” value is 60%. Besides, the “rate of progression-free survival” value with multiple myeloma (at one year after beginning of treatment, elotuzumab group vs control group (only Lenalidomid and dexmethason)) is 68%. In addition, in the series on multiple myeloma (in vivo), the “infection rate compared to the control group” value is recorded as “No significant increase in the infection rate” and the “lymphocyte reduction after the initial infusion” value is 77%. Also, in series [1], the “binding to CD34+ hematopoietic stem cells” value is “No binding”.

As to “tocilizumab: recombinant humanized monoclonal antibody that blocks IL-6 from binding to its receptor”, the “patients achieving a response (resolution of CRS within 14 days of the first dose)” value in the series with CAR-T cell-induced CRS is 69%.

B1: SLAMF7 binding chimeric antigen receptor (CAR) polypeptide, expressed on human T cells (other)
chain: EVQLVESGGGLVQPGGSLRLSCAASGFDFSRYWMSWVRQAPGKGLEWIGEINPDSSTINYAPSLKDKFIISRDNAKNSLYLQMNSLRAEDTAVYYCARPDGNYWYFDVWGQGTLVTVSSGGGGSGGGGSGGGGSDIQMTQSPSSLSASVGDRVTITCKASQDVGIAVAWYQQKPGKVPKLLIYWASTRHTGVPDRFSGSGSGTDFTLTISSLQPEDVATYYCQQYSSYPYTFGQGTKVEIKESKYGPPCPPCPAPPVAGPSVFLFPPKPKDTLMISRTPEVTCVVVDVSQEDPEVQFNWYVDGVEVHNAKTKPREEQFQSTYRVVSVLTVLHQDWLNGKEYKCKVSNKGLPSSIEKTISKAKGQPREPQVYTLPPSQEEMTKNQVSLTCLVKGFYPSDIAVEWESNGQPENNYKTTPPVLDSDGSFFLYSRLTVDKSRWQEGNVFSCSVMHEALHNHYTQKSLSLSLGKMFWVLVVVGGVLACYSLLVTVAFIIFWVRSKRSRGGHSDYMNMTPRRPGPTRKHYQPYAPPRDFAAYRSRVKFSRSADAPAYQQGQNQLYNELNLGRREEYDVLDKRRGRDPEMGGKPRRKNPQEGLYNELQKDKMAEAYSEIGMKGERRRGKGHDGLYQGLSTATKDTYDALHMQALPPR
notes: also called SLAMF7 CAR; SLAMF7-CAR
Turning to B1, the binding result in series [2] was “no binding”.
